According to article PMC8253220, “Molecular design, synthesis and in vitro biological evaluation of thienopyrimidine–hydroxamic acids as chimeric kinase HDAC inhibitors: a challenging approach to combat cancer” (Journal of Enzyme Inhibition and Medicinal Chemistry, 2021):

What was measured:
VEGFR2 = conditions: Figure 3; read-out: VEGFR2 IC50; cited from earlier work
VEGFR-2 = VEGFR-2 (Homo sapiens, UniProt P35968); experiment: In vitro VEGFR-2 tyrosine kinase inhibitory assay (Z'-LYTE, SelectScreen); format: biochemical; conditions: 10 µM single dose
Protocol: The target compounds were evaluated for their in vitro inhibitory activities against EGFR, VEGFR-2, and HDAC6. The EGFR and VEGFR-2 inhibitory assays were performed at Thermo Fischer Scientific, Madison, WI, USA (SelectScreenServices@thermofisher.com). The HDAC inhibitory assays were performed at BPS Bioscience, San Diego, CA, USA (www.bpsbioscience.com). Initially, all of the synthesised target compounds were evaluated for their percent inhibitory activity against EGFR, VEGFR-2, and HDACs at 10 µM single dose concentration, in which their mean percent inhibition is summarised in (Figure 5, Tables 1 and [2]). Representative compounds were evaluated for their percent inhibitory activity against EGFR and VEGFR-2 at 6 different concentrations (0.1 nM, 1 nM, 10 nM, 100 nM, 1 µM, 10 µM) to subsequently calculate their IC50 values (Table 3). Additionally, all of the synthesised target compounds were submitted to the National Cancer Institute “NCI” Bethesda, Maryland, USA (www.dtp.nci.nih.gov), to evaluate theirs in vitro antiproliferative activities against NCI 60- cancer cell line panel.
In vitro enzyme inhibition determination for the synthesised compounds was carried out in Thermo Fischer Scientific, Madison, WI, USA (SelectScreenServices@thermofisher.com). The EGFR and VEGFR-2 tyrosine kinase % inhibitory activity at a single-dose concentration of 10 µM was performed initially then representative compounds were evaluated at single-dose concentrations of (0.1 nM, 1 nM, 10 nM, 100 nM, 1 µM) using ZYLTE technology. A fluorescence-based, coupled-enzyme format is employed in the biochemical assay and depends on the sensitivity of proteolytic cleavage to non-phosphorylated and phosphorylated peptides. Then IC50 values for selected compounds were determined by GraphPad Prism at Misr international university.

HDAC6 = target: T1, HDAC6 (Homo sapiens, UniProt Q9UBN7); experiment: In vitro HDAC6 inhibitory assay (BPS Bioscience, fluorogenic); format: biochemical; conditions: read-out: % Inhibition HDAC6
T1 construct: purchased BPS Bioscience 50006
T1 sequence (Q9UBN7 1-1215): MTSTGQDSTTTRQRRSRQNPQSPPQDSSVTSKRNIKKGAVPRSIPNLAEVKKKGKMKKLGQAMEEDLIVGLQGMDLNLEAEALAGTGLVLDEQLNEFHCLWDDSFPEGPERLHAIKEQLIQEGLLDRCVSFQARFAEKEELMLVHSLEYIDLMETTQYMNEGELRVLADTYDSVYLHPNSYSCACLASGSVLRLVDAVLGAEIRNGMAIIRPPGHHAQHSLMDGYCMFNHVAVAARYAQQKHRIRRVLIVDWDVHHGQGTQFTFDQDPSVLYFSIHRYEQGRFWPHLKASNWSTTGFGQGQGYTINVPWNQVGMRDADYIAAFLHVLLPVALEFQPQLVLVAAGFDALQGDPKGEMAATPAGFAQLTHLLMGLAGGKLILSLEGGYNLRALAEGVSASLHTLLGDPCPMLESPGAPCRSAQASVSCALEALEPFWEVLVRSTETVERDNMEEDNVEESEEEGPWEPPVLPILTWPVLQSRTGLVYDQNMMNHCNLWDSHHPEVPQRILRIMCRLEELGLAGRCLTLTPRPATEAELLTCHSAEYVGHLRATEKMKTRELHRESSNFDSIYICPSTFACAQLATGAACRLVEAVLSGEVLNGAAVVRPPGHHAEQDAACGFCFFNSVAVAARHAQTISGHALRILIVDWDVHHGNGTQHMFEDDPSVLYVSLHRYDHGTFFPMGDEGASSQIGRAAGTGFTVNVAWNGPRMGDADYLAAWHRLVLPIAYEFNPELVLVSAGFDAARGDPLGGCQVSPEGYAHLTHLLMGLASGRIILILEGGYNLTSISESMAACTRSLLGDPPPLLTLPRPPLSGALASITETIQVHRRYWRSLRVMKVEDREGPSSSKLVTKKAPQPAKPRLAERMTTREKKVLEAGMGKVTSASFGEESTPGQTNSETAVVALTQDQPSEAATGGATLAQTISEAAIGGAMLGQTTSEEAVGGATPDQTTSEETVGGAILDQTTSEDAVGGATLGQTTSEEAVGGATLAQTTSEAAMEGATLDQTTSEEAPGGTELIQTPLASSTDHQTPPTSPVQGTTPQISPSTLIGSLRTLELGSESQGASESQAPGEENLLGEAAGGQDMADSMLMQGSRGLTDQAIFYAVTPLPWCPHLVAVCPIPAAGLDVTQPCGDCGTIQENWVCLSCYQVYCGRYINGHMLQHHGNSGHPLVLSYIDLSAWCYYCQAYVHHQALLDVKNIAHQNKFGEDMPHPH
Protocol: (1 picture or pasted object on this page, not shown here)
HDAC activity assays were performed in duplicates at each concentration. The

Hela nuclear extracts = experiment: Hela nuclear extract HDAC inhibitor assay (BPS Bioscience); format: biochemical
Protocol: The purpose of the study is to determine the effects of twenty compounds from Misr International University on the enzymatic activities of hela nuclear extracts using an in vitro […]
7a Solution 10mM DMSO 10 10 % DMSO in
7b Solution 10mM DMSO 10 10 % DMSO in
7d Solution 10mM DMSO 10 10 % DMSO in
2.3 Experimental Conditions
2.3.1 Enzymes and Substrates
Assay Catalog # Substrate
Hela Nuclear Exctract 50053 10 µM HDAC Substrate 3
For the hela nuclear extracts, hela cells were grown to 90 % confluency. Hela nuclear extracts were prepared from the Nuclear Extraction Kit from abcam (Catalog # ab113474). The final total protein concentration was calculated to be 2.4 µg/µl. From this, the hela nuclear extracts was diluted 20-fold in HDAC assay buffer and 5 µl of the dilution was added to a 50 µl reaction.
The compounds are dissolved in DMSO. A series of dilutions of the compounds were prepared with 10% DMSO in HDAC assay buffer and 5 µl of the dilution was added to a 50 µl reaction so that the final concentration of DMSO is 1 % in all of […]
The enzymatic reactions for the hela nuclear extract were conducted in duplicate at 37 °C for 60 minutes in a 50 µl mixture containing HDAC assay buffer, 5 µg BSA, an HDAC substrate (see 2.3.1), hela nuclear extract, and a test compound (see 2.2).
After enzymatic reactions, 50μl of 2 x HDAC Developer was added to each well for the hela nuclear extract and the plate was incubated at room temperature for an additional 15 […]
Fluorescence intensity was measured at an excitation of 360 nm and an emission of 460 nm using a Tecan Infinite M1000 microplate reader.
Hela nuclear extract activity assays were performed in duplicates at each concentration.
The fluorescent intensity data were analyzed using the computer software, Graphpad Prism. In the absence of the compound, the fluorescent intensity (Ft) in each data set was defined as 100% activity. In the absence of hela nuclear extract, the fluorescent intensity (Fb) in each data set was defined as 0% activity. The percent activity in the presence of each compound was calculated according to the following equation: %activity = (F-Fb)/(Ft-Fb), where F= the fluorescent intensity in the presence of the compound.
The values of percentage activity were plotted on a bar graph.

Sequence of VEGFR-2 (P35968 20-1356): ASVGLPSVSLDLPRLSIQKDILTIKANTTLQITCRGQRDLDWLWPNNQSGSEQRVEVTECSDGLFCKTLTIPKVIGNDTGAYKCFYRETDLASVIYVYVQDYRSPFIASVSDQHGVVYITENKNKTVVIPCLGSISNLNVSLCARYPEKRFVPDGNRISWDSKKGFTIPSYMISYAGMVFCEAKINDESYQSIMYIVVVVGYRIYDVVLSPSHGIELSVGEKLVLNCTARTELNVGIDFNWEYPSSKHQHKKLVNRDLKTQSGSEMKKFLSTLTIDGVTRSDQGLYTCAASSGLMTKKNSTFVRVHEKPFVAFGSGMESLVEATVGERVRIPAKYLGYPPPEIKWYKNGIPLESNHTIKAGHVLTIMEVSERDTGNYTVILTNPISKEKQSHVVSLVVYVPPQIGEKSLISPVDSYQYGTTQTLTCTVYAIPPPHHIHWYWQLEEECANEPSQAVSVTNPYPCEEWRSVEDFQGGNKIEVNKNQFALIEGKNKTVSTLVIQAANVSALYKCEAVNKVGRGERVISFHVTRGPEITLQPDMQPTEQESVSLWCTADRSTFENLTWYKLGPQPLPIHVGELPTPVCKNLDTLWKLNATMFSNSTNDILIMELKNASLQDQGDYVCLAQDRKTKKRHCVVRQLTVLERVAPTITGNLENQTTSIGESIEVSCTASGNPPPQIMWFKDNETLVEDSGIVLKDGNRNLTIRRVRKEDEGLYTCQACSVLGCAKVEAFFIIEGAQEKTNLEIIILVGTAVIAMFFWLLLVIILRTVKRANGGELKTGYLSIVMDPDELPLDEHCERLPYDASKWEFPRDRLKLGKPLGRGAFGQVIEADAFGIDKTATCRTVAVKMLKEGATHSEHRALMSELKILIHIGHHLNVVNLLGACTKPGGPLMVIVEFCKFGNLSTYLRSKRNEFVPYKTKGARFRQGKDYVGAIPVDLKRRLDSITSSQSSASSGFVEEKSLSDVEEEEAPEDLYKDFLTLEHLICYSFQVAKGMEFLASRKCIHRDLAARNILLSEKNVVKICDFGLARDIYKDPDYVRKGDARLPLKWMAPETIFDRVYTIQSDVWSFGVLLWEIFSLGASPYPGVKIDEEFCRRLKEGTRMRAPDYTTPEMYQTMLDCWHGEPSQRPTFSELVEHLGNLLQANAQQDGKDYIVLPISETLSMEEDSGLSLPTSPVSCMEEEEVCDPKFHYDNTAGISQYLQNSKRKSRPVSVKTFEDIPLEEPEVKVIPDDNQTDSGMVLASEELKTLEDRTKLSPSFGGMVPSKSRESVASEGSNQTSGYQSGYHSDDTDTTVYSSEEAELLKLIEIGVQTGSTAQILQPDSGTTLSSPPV

Structure (SMILES) | melting point [°C] | further results
CCOC(=O)c1sc2ncnc(Nc3ccc(NC(=O)Nc4ccccc4)cc3)c2c1C [Compound 6a, Ethyl 5-methyl-4–(4-(3-phenylureido)phenylamino)thieno[2,3-d]pyrimidine-6-carboxylate] | 319 to 322 | 
Clc1ccc(Oc2ncnc3sc4c(c23)CCCCC4)cc1 [Compound D] |  | IC50 (VEGFR2): 340 nM
CCOC(=O)c1sc2ncnc(Nc3ccccc3)c2c1C [Compound 14b, Ethyl 5-methyl-4-(phenylamino)thieno[2,3-d]pyrimidine-6-carboxylate] | 170 to 172 | 
CCOC(=O)c1sc2ncnc(Nc3ccc(NC(=O)Nc4cccc(OC)c4)cc3)c2c1C [Compound 6b, Ethyl 4–(4-(3–(3-methoxyphenyl)ureido)phenylamino)-5-methylthieno[2,3-d]pyrimidine-6-carboxylate] | 220 to 222 | 
CCOC(=O)c1sc2ncnc(Nc3ccc(NC(=S)Nc4ccccc4)cc3)c2c1C [Compound 6d, Ethyl 5-methyl-4–(4-(3-phenylthioureido)phenylamino)thieno[2,3-d]pyrimidine-6-carboxylate] | 173 to 175 | 
CCOC(=O)CCCNC(=O)c1sc2ncnc(Nc3ccc(NC(=O)Nc4cccc(C(F)(F)F)c4)cc3)c2c1C [Compound 10c, Ethyl 4–(5-methyl-4–(4-(3–(3(trifluoromethyl)phenyl)ureido)phenylamino)thieno[2,3-d]pyrimidine-6-carboxamido)butanoate] | 197 to 199 | 
CCOC(=O)CCCNC(=O)c1sc2ncnc(Nc3ccc(NC(=O)Nc4ccccc4)cc3)c2c1C [Compound 10a, Ethyl 4–(5-methyl-4–(4-(3-phenylureido)phenylamino)thieno[2,3-d]pyrimidine-6-carboxamido)butanoate] | 219 to 221 | 
CCOC(=O)c1sc2ncnc(Nc3ccc4[nH]cnc4c3)c2c1C [Compound 14a, Ethyl 4-(1H-benzo[d]imidazol-5-ylamino)-5-methylthieno[2,3-d]pyrimidine-6-carboxylate.] | 250 to 251 | 
CCOC(=O)c1sc2ncnc(Nc3ccc(NC(=O)Nc4cccc(C(F)(F)F)c4)cc3)c2c1C [Compound 6c, Ethyl 4–(4-(3–(3-trifluromethyphenyl)ureido)phenylamino)-5-methylthieno[2,3-d]pyrimidine-6-carboxylate] | 305 to 307 | 
CC(C=CC(=O)NO)=CC(C)C(=O)c1ccc(N(C)C)cc1 (centres unmarked) [TSA, reference compound] |  | inhibition at 0.0005 µM (HDAC6): 23%; inhibition at 0.005 µM (HDAC6): 73%; inhibition at 0.05 µM (HDAC6): 95%; % Inhibition Hela Nuclear Extracts (Hela nuclear extracts; 0.0003 µM (printed 0.0003 M)): 7%; % Inhibition Hela Nuclear Extracts (Hela nuclear extracts; 0.003 µM (printed 0.003 M)): 46%; % Inhibition Hela Nuclear Extracts (Hela nuclear extracts; 0.03 µM (printed 0.03 M)): 88%

More lines, main results first:

melting point [°C] | Structure (SMILES) | further results
138 | CCOC(=O)CCCNC(=O)c1sc2ncnc(Nc3ccc(Cl)cc3)c2c1C [Compound 18c, Ethyl 4–(4-(4-chlorophenylamino)-5-methylthieno[2,3-d]pyrimidine-6-carboxamido)butanoate] | 
174 to 176 | CCOC(=O)c1sc2ncnc(Nc3ccc(Cl)cc3)c2c1C [Compound 14c, Ethyl 4–(4-chlorophenylamino)-5-methylthieno[2,3-d]pyrimidine-6-carboxylate] | 
250 | CCOC(=O)CCNC(=O)c1sc2ncnc(Nc3ccc(NC(=O)Nc4cccc(OC)c4)cc3)c2c1C [Compound 9b, Ethyl 3–(4-(4–(3-(3-methoxyphenyl)ureido)phenylamino)-5-methylthieno[2,3-d]pyrimidine-6-carboxamido)propanoate] | 
184 | CCOC(=O)CCNC(=O)c1sc2ncnc(Nc3ccc(F)c(Cl)c3)c2c1C [Compound 17d, Ethyl 3–(4-(3-chloro-4-fluorophenylamino)-5-methylthieno[2,3-d]pyrimidine-6-carboxamido)propanoate] | 
145 to 147 | CCOC(=O)CCCNC(=O)c1sc2ncnc(Nc3ccccc3)c2c1C [Compound 18b, Ethyl 4–(5-methyl-4-(phenylamino)thieno[2,3-d]pyrimidine-6-carboxamido)butanoate] | 
154 to 156 | CCOC(=O)c1sc2ncnc(Nc3ccc(F)c(Cl)c3)c2c1C [Compound 14d, Ethyl 4–(3-chloro-4-fluorophenylamino)-5-methylthieno[2,3-d]pyrimidine-6-carboxylate] | 
206 | CCOC(=O)CCNC(=O)c1sc2ncnc(Nc3ccccc3)c2c1C [Compound 17b, Ethyl 3–(5-methyl-4-(phenylamino)thieno[2,3-d]pyrimidine-6-carboxamido)propanoate] | 
131 to 133 | CCOC(=O)CCCNC(=O)c1sc2ncnc(Nc3ccc(F)c(Cl)c3)c2c1C [Compound 18d, Ethyl 4–(4-(3-chloro-4-fluorophenylamino)-5-methylthieno[2,3-d]pyrimidine-6-carboxamido)butanoate] | 
202 | CCOC(=O)CCNC(=O)c1sc2ncnc(Nc3ccc(Cl)cc3)c2c1C [Compound 17c] | inhibition at 10 µM (VEGFR-2): 87%
220 | CCOC(=O)CCNC(=O)c1sc2ncnc(Nc3ccc(NC(=O)Nc4cccc(C(F)(F)F)c4)cc3)c2c1C [Compound 9c, Ethyl 3–(5-methyl-4–(4-(3(3(trifluoromethyl)phenyl)ureido)phenylamino)thieno[2,3-d]pyrimidine-6-carboxamido)propanoate] | 
